Experimental data from patent US7241611B2, “Methods for synthesis of holo-photoactive yellow protein” (Universiteit Gent, priority 2002, dated 2007).
Read-outs that look alike come from different tables or passages of the source.

Legend:
[1] = tested on: tyrosine ammonia lyase (TAL) from Rhodobacter capsulatus; assay type: biochemical; details: for pH optimum of activity (TAL with L-tyrosine, PAL with L-phenylalanine): pH 6
Protocol: Both activities were followed by the following spectrophotometric assay (adapted from Rösler et al. (1997)): PAL activity was assayed by following cinnamic acid formation at 280 nm using a double beam spectrophotometer (Uvikon, Kontron, Herts, United Kingdom) in 10 mM Tris buffer at 35° C. The pH optimum was determined between the pH values 6-10. The substrate concentrations were varied between 5 mM and 0.2 mM. TAL activity was assayed by monitoring p-hydroxycinnamic acid formation at 310 nm and 35° C. The substrate concentration was varied between 2 mM and 0.01 mM. All reactions were performed in a total volume of 1 ml.
FIG. 3 presents Lineweaver-Burk plots for the two substrates at their respective pH optimum.
Since PAL and TAL sequences show significant homology to histidine ammonia lyases (HAL), which are common enzymes in bacteria, we also tested L-histidine as a substrate for the recombinant enzyme.

[2] = target: T1, PAL/TAL enzyme from the monocot Zea mays (Zea mays, UniProt Q8VXG7); details: pH 8.7; cited from earlier work
[3] = target: PAL-1 isozyme from parsley (Petroselinum crispum) (Petroselinum crispum, UniProt P24481); details: cited from earlier work
[4] = target: T1, PAL/TAL enzyme from the monocot Zea mays; experiment: Kinetic parameters of the PAL/TAL enzyme from maize (Rösler et al., 1997); assay type: biochemical; details: pH 8.7
[5] = Laser flash photolysis, photocycle kinetics of PYP; set-up: species or system Halorhodospira halophila; details: flash 440 nm, universal buffer pH 8.0
Protocol: The laser flash photolysis and spectroscopy apparatus and the methods used for data analysis were as previously described (Meyer et al., 1987). The PYP sample was dialysed against a universal buffer (20 mM MES, 20 mM HEPES, and 20 mM glycine, pH 8.0) prior to the experiment. We used 1 ml samples, with an absorbance at 445 nm of approximately 0.2, for the kinetic measurements. By flashing the PYP sample with laser light of 440 nm, we could determine the kinetics of the light-induced absorbance changes. FIGS. 9a and 9b show the I1→I2 bleach reaction and the I2→P recovery of our in vivo formed holo-PYP. It can be seen that after a flash with 440 nm light, the PYP went through a normal photocycle. […] The rate of recovery was 7.2 s^−1, compared to 6.3 s^−1 for wild-type and chemically reconstituted PYP (Meyer et al., 1987; Genick et al., 1997). […] Since this is different from the 3.4 ms^−1 reported by Genick et al. (1997), we repeated the experiment under our conditions with native PYP and found the rate to be 1.3 ms^−1. This is approximately the same as what we measured with our recombinant PYP.

[6] = reported by Genick et al. (1997); cited from earlier work

T1 sequence (Q8VXG7 whole entry): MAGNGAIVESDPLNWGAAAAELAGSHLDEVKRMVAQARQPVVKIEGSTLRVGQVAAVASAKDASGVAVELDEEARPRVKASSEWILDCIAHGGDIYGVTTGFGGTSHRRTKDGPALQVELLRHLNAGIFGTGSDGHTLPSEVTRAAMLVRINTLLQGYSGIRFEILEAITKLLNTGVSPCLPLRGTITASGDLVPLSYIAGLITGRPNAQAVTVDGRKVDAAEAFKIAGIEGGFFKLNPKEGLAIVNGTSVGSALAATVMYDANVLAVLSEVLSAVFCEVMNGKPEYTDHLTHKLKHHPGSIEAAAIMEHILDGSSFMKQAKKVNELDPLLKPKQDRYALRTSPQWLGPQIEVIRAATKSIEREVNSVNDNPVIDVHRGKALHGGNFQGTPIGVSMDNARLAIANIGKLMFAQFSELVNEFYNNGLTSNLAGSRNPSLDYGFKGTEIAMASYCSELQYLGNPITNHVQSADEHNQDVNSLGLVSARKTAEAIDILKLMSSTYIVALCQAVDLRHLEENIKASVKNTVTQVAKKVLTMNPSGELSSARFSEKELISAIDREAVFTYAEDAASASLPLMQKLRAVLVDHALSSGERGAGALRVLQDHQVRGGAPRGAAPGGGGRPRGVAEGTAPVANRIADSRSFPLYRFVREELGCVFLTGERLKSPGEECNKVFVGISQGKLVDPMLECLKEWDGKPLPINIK

Which results are given for `N[C@@H](Cc1ccccc1)C(=O)O` [L-Phenylalanine, L-phenylalanine]?
fold higher Km for L-Phe than for L-Tyr [1]: 80 fold; pH optimum of activity (TAL with L-tyrosine, PAL with L-phenylalanine) [1]: 9.4; Km [2]: 270 µM; kcat [2]: 10 s⁻¹; Km [3]: 17.2 µM; kcat [3]: 22 s⁻¹; fold higher Km value for L-Phe compared to L-Tyr [4]: 15 fold

With `N[C@@H](Cc1ccc(O)cc1)C(=O)O` [L-Tyrosine, L-tyrosine] as the molecule, how does the “pH optimum of activity (TAL with L-tyrosine, PAL with L-phenylalanine)” value [1] read?
Its value is 8.5.

And the Km [2]?
Its Km is 19 µM.

And the kcat [2]?
Its kcat is 0.9 s⁻¹.

And the kcat [3]?
The kcat was 0.3 s⁻¹.

Which “activity as substrate (histidine ammonia lyase activity)” value ([1]; spectrophotometric assay of Schwede et al. (1999)) does the source give for `N[C@@H](Cc1c[nH]cn1)C(=O)O` [L-histidine] here?
Its value is “could not detect any activity”.

With `N[C@@H](Cc1c[nH]c2ccccc12)C(=O)O` [L-tryptophan] as the molecule, how does the activity as substrate ([1]; up to a 5 mM concentration) read?
The activity as substrate was “no activity was detected”.

B1: recombinant PYP: holo-photoactive yellow protein formed in vivo in Escherichia coli with TAL, pCL and pyp genes (protein, UniProt P16113 1-125, looked up)
Photoactive yellow protein: MEHVAFGSEDIENTLAKMDDGQLDGLAFGAIQLDGDGNILQYNAAEGDITGRDPKQVIGKNFFKDVAPCTDSPEFYGKFKEGVASGNLNTMFEYTFDYQMTPTKVKVHMKKALSGDSYWVFVKRV
modifications: recombinant holo form, expressed in E. coli
With B1 as the molecule, how does the “rate constant of the bleach (I1→I2)” value [5] read?
Its value is 1.6 ms^−1.

B2: chemically reconstituted PYP: recombinant apo-PYP with the chromophore chemically attached (Genick et al., 1997) (protein, UniProt P16113 1-125, looked up)
Photoactive yellow protein: MEHVAFGSEDIENTLAKMDDGQLDGLAFGAIQLDGDGNILQYNAAEGDITGRDPKQVIGKNFFKDVAPCTDSPEFYGKFKEGVASGNLNTMFEYTFDYQMTPTKVKVHMKKALSGDSYWVFVKRV
modifications: chemically attached chromophore
With B2 as the molecule, how does the “rate constant of the bleach (I1→I2)” value [6] read?
The value was 3.4 ms^−1.

B3: wild-type PYP: wild-type Halorhodospira halophila photoactive yellow protein (protein, UniProt P16113 1-125, looked up)
Photoactive yellow protein: MEHVAFGSEDIENTLAKMDDGQLDGLAFGAIQLDGDGNILQYNAAEGDITGRDPKQVIGKNFFKDVAPCTDSPEFYGKFKEGVASGNLNTMFEYTFDYQMTPTKVKVHMKKALSGDSYWVFVKRV
modifications: holo form with chromophore
With B3 as the molecule, how does the “rate constant of the bleach (I1→I2)” value [5] read?
The value was 1.3 ms^−1.
